Legend:
Format in all cases: biochemical
MMP 10 = MMP 10 (Homo sapiens, UniProt P09238); assay: Non-TMPRSS2 protease panel: MMP 10; conditions: 3-fold from 10 μM
Experimental: (§1) Biochemical activity of compound 1 (racemic mixture, batch 1), compound 3 (racemic), compound 11, and compound 2 (enantiomer 1, batch 1) in proteases indicated in Table 21, Table 22, Table 23, and Table 24, respectively, were measured by testing the compounds in a 10-dose IC50 with a 3-fold series dilution starting at 10 μM against the proteases. The protease activities were monitored as a time-course measurement of the increase in fluorescence signal from fluorescently-labeled peptide substrate, and initial linear portion of slope (signal/min) was analyzed. The curve fits were performed when the activities at the highest concentration of compounds were less than 65%.

Matriptase 2 = molecular target: T1, Matriptase 2 (Homo sapiens, UniProt Q8IU80); assay: Non-TMPRSS2 protease panel: Matriptase 2; conditions: 10-dose, 3-fold from 10 μM
T1 sequence (Q8IU80 1-811): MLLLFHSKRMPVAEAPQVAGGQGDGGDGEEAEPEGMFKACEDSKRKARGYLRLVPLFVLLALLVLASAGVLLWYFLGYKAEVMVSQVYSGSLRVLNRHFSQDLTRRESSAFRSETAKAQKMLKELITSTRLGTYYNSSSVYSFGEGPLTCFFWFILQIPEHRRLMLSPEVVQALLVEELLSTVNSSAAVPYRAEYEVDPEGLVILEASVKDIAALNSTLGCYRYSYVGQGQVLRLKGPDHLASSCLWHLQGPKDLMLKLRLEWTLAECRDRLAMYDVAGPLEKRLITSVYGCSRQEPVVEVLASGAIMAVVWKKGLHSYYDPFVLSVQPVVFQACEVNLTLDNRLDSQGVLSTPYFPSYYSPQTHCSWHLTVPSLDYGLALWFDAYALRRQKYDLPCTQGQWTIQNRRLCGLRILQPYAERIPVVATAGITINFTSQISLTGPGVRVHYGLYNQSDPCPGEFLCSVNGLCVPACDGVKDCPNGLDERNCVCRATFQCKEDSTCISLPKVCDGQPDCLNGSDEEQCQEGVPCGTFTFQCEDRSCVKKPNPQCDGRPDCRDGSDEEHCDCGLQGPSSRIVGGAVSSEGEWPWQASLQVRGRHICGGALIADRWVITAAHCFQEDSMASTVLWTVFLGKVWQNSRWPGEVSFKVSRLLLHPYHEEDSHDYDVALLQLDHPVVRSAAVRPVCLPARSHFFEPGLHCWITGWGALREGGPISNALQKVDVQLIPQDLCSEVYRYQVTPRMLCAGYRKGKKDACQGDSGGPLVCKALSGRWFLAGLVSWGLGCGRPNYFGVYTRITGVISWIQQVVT
Experimental: as §1

Cathepsin L = Cathepsin L (Homo sapiens, UniProt P07711); assay: Non-TMPRSS2 protease panel: Cathepsin L; conditions: 10-dose, 3-fold from 10 μM
Cathepsin L, sequence (P07711 114-333): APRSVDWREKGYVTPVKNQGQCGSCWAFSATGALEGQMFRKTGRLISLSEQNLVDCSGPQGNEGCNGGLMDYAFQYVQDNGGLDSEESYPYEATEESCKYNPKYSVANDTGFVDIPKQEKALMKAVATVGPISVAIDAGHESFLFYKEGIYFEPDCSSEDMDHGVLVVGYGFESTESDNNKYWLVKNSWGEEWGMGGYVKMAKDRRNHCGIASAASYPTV
Experimental: as §1

MMP 14 = MMP 14 (Homo sapiens, UniProt P50281); assay: Non-TMPRSS2 protease panel: MMP 14; conditions: 10-dose, 3-fold from 10 μM
Experimental: as §1

Plasma Kallikrein = Plasma Kallikrein (Homo sapiens, UniProt P03952); assay: Non-TMPRSS2 protease panel: Plasma Kallikrein; conditions: 10-dose, 3-fold from 10 μM
Plasma Kallikrein, sequence (P03952 391-638 limits assumed): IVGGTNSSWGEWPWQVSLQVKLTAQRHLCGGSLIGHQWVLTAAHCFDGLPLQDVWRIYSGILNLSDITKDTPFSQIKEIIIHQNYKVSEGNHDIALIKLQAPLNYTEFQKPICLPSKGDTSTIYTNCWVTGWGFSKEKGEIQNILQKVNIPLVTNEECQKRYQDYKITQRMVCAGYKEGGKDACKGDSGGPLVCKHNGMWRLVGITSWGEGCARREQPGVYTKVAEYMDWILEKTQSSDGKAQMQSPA
Plasma Kallikrein, sequence (P03952 20-390 partner limits assumed): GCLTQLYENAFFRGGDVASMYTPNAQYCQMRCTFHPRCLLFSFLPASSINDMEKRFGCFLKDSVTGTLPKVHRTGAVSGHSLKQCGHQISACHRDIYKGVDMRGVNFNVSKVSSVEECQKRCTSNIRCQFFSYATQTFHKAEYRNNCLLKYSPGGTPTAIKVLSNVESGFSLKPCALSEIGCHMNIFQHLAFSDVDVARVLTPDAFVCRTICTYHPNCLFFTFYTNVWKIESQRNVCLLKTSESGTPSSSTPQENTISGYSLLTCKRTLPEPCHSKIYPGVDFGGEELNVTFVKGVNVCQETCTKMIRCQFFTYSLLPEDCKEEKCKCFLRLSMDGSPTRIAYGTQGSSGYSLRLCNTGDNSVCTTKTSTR
Experimental: as §1

Urokinase = Urokinase (Homo sapiens, UniProt P00749); assay: Non-TMPRSS2 protease panel: Urokinase; conditions: 10-dose, 3-fold from 10 μM
Experimental: as §1

MMP 13 = MMP 13 (Homo sapiens, UniProt P45452); assay: Non-TMPRSS2 protease panel: MMP 13; conditions: 10-dose, 3-fold from 10 μM
Experimental: as §1

Kallikrein 5 = molecular target: T2, Kallikrein 5 (Homo sapiens, UniProt Q9Y337); assay: Non-TMPRSS2 protease panel: Kallikrein 5; conditions: 10-dose, 3-fold from 10 μM
T2 sequence (Q9Y337 23-293): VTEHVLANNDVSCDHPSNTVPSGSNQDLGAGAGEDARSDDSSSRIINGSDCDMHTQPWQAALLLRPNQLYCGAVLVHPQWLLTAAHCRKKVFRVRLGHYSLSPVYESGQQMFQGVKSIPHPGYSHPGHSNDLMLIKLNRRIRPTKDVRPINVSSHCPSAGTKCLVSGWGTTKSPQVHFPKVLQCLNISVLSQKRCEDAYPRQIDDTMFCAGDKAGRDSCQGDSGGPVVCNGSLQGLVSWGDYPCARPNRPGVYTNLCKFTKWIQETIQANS
Experimental: as §1

Cathepsin B = Cathepsin B (Homo sapiens, UniProt P07858); assay: Non-TMPRSS2 protease panel: Cathepsin B; conditions: 10-dose, 3-fold from 10 μM
Experimental: as §1

TACE = TACE (Homo sapiens, UniProt P78536); assay: Non-TMPRSS2 protease panel: TACE; conditions: 10-dose, 3-fold from 10 μM
TACE, sequence (P78536 215-824): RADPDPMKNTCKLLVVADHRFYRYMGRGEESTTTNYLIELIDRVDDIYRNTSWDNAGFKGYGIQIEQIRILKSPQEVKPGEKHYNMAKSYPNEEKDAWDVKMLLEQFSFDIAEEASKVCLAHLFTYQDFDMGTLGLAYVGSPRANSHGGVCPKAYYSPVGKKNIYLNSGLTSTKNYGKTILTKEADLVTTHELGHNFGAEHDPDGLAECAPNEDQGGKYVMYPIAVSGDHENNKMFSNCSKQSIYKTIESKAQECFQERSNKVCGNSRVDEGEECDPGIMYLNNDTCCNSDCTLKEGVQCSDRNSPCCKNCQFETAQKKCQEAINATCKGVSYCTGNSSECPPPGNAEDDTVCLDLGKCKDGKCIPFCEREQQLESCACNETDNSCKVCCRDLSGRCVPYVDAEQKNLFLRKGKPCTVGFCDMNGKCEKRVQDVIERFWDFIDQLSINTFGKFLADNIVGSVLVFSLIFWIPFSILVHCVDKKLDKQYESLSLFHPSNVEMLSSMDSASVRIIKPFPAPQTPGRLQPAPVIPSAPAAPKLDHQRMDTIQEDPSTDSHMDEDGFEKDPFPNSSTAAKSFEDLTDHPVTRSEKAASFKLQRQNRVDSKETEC
Experimental: as §1

[1] = molecular target: T3, Recombinant human TMPRSS2 protein (106-492 aa) (Homo sapiens, UniProt O15393); assay: TMPRSS2 Assay 1 (Example 41), fluorogenic Boc-Gln-Ala-Arg-AMC cleavage; conditions: TMPRSS2 10 nM, substrate 25 μM, 20 min pre-incubation
T3 construct: Human TMPRSS2-(AA 106-492)-; purchased CusaBio CSB-YP023924HU; host or cells: yeast
T3 sequence (O15393 106-492): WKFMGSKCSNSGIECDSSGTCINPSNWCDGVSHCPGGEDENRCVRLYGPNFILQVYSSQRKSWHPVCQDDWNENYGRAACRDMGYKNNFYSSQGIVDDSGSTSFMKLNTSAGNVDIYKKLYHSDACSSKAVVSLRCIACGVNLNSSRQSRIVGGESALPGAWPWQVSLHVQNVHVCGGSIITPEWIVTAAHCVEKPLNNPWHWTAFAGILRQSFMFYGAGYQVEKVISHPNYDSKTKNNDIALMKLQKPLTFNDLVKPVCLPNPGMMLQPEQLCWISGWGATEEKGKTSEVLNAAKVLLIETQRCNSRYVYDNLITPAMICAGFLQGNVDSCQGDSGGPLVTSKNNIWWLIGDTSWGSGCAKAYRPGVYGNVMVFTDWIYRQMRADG
Experimental: The enzyme (TMPRSS2, CusaBio cat #CSB-YP023924HU. Recombinant human TMPRSS2 protein (106-492 aa)N-terminal 6×His-tagged (“6×His” disclosed as SEQ ID NO: 4), expressed in yeast cells; MW=44.8 kDa, lyophilized from 20 mM: Tris HCl, 0.5 M NaCl, 6% Trehalose, pH 8.0, >85% purity as determined by SDS-PAGE. Uniprot: 015393; 10 nM in the reaction) and substrate (Boc-Gln-Ala-Arg-AMC; Enzo Cat #BML-P237-0005, MW=581.76 Da. 25 μM in the reaction) were prepared in Reaction Buffer (50 mM Tris-HCl pH 8, 150 mM NaCl, 0.005% Brij35, 1% DMSO). After the enzyme solution was delivered into the reaction well, the compounds in DMSO were delivered to the reaction mixture by using Acoustic Technology (Echo 550, LabCyte Inc. Sunnyvale, CA) in nanoliter range. After 20 min pre-incubation, the substrate solution was delivered into the reaction well to initiate the reaction. The enzyme activities were monitored every 5 min as a time-course measurement of the increase in fluorescence signal from fluorescently-labeled peptide substrate for 120 min. at room temperature. Data was analyzed by taking slope*(signal/time) of linear portion of measurement. The slope was calculated using Excel, and the curve fits were performed using Prism software.

MMP 10, sequence (P09238 99-476): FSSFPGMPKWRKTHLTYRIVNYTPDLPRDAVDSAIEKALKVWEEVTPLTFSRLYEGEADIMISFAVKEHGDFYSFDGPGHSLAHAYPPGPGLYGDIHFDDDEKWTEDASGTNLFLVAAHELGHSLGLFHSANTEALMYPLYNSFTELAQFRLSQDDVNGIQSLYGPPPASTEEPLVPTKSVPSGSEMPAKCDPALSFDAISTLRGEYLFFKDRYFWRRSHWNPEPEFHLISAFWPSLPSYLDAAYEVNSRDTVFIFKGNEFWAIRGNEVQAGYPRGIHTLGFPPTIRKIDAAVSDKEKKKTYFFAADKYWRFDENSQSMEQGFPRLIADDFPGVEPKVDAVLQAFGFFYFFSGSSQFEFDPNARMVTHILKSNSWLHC

Structure (SMILES) | IC50 (MMP 10) [µM] | IC50 (Matriptase 2) [µM] | IC50 (Cathepsin L) [µM] | IC50 (MMP 14) [µM] | IC50 (Plasma Kallikrein) [µM] | IC50 (Urokinase) [µM] | IC50 (MMP 13) [µM] | IC50 (Kallikrein 5) [µM] | IC50 (Cathepsin B) [µM] | IC50 (TACE) [µM] | IC50 [1] [µM]
COc1ccc2nc(C(Cc3cccc(C(=N)N)c3)NS(=O)(=O)c3ccccc3)sc2c1 (stereo not shown) [Compound 11, 3-[2-Benzenesulfonamido-2-(6-methoxy-1,3-benzothiazol-2-yl)ethyl]benzene-1-carboximidamide] | > 10 | < 10 | > 10 | > 10 | > 10 | < 10 | > 10 | > 10 | > 10 | > 10 | 
N=C(N)c1cccc(CC(NS(=O)(=O)c2ccccc2)c2nc3ccccc3s2)c1 (racemic) [1 (racemic mixture, batch 1), 3-[2-Benzenesulfonamido-2-(1,3-benzothiazol-2-yl)ethyl]benzene-1-carboximidamide] | > 10 | > 10 | > 10 | > 10 | > 10 | > 10 | > 10 | > 10 | > 10 | > 10 | < 10
N=C(N)c1cccc(C[C@H](NS(=O)(=O)c2ccccc2)c2nnco2)c1 (single isomer, unassigned) [Compound 2 (enantiomer 1, batch 1), 3-[2-Benzenesulfonamido-2-(1,3,4-oxadiazol-2-yl)ethyl]benzene-1-carboximidamide] | > 10 | > 10 | > 10 | > 10 | > 10 | > 10 | > 10 | > 10 | > 10 | > 10 | > 10
N=C(N)c1cccc(CC(NS(=O)(=O)c2cccc(-c3ccc(Cl)cc3Cl)c2)c2nc3ccccc3s2)c1 (racemic) [3 (racemic), 3-[2-(1,3-Benzothiazol-2-yl)-2-{2′,4′-dichloro-[1,1′-biphenyl]-3-sulfonamido}ethyl]benzene-1-carboximidamide] | > 10 | > 10 | > 10 | < 10 | > 10 | > 10 | > 10 | > 10 | > 10 | > 10 | < 10
